# Assay results taken from US9204640B2, “2-acyloxy-pyrrolin-4-ones” (BAYER INTELLECTUAL PROPERTY GMBH, priority 2011, dated 2015).
# Key:
# Assay type in all cases: in vivo
# Tetranychus urticae = test: Tetranychus test (TETRUR spray treatment; OP-resistant in Example 10)
# Description: Tetranychus Test (TETRUR Spray Treatment)
# To produce a suitable preparation of active compound, 1 part by weight of active compound is mixed with the stated amount of solvent and emulsifier, and the concentrate is diluted with emulsifier-containing water to the desired concentration. Discs of bean leaves (Phaseolus vulgaris) which are infested by all stages of the greenhouse red spider mite (Tetranychus urticae) are sprayed with an active compound preparation of the desired concentration.
# After 5 days, the effect in % is determined. 100% means that all of the spider mites have been killed; 0% means that none of the spider mites have been killed.
# Tetranychus Test, OP-Resistant (TETRUR Spray Treatment)
# To produce a suitable preparation of active compound, 1 part by weight of active compound is mixed with the stated amount of solvent and emulsifier, and the concentrate is diluted with emulsifier-containing water to the desired concentration.
# Discs of bean leaves (Phaseolus vulgaris) which are infested by all stages of the greenhouse red spider mite (Tetranychus urticae) are sprayed with an active compound preparation of the desired concentration.
# After the desired period of time, the activity in % is determined. 100% means that all of the spider mites have been killed; 0% means that none of the spider mites have been killed.
# Boophilus microplus = Boophilus microplus test (BOOPMI injection); conditions: 20 μg/animal, after 7 days
# Description: Boophilus Microplus Test (BOOPMI Injection) [table] To prepare an appropriate active compound formulation, 10 mg of active compound are mixed with 0.5 ml of solvent and the concentrate is diluted with solvent to the desired concentration. The solution of active compound is injected into the abdomen (Boophilus microplus), and the animals are transferred into dishes and kept in a climatized room. The activity is assessed by deposition of fertile eggs. After 7 days, the effect in % is determined. 100% means that none of the ticks has laid any fertile eggs.
# Liriomyza trifolii = Liriomyza trifolii spray test (LIRITR); conditions: 20 g/ha; 7dat
# Description: Liriomyza Trifolii-Spray Test ([…]) To produce a suitable preparation of active compound, 1 part by weight of active compound is mixed with the stated amount of solvent and emulsifier, and the concentrate is diluted with emulsifier-containing water to the desired concentration. If the addition of ammonium salts or/and penetrants is required, these are in each case added in a concentration of 1000 ppm to the solution of the preparations. Discs of bean leaves (Phaseolus vulgaris) which are infested by all stages of the leaf-mining fly (Liriomyza trifolii) are sprayed with an active compound preparation of the desired concentration. After the desired period of time, the activity in % is determined. 100% means that all of the leaf-mining flies have been killed; 0% means that none of the leaf-mining flies have been killed.
# Phaedon cochleariae = test: Phaedon test (PHAECO spray treatment); conditions: application rate 500 g/ha, after 7 days, Chinese cabbage leaf discs
# Description: Phaedon Test ([…] Spray Treatment) [table] To produce a suitable preparation of active compound, 1 part by weight of active compound is mixed with the stated amount of solvent and emulsifier, and the concentrate is diluted with emulsifier-containing water to the desired concentration. Discs of Chinese cabbage (Brassica pekinensis) are sprayed with an active compound preparation of the desired concentration and, after drying, populated with larvae of the mustard beetle (Phaedon cochleariae). After 7 days, the effect in % is determined 100% means that all beetle larvae have been killed; 0% means that none of the beetle larvae have been killed. Phaedon Test ([…] Spray Treatment) To produce a suitable preparation of active compound, 1 part by weight of active compound is mixed with the stated amount of solvent and emulsifier, and the concentrate is diluted with emulsifier-containing water to the desired concentration. Discs of Chinese cabbage (Brassica pekinensis) are sprayed with an active compound preparation of the desired concentration and, after drying, populated with larvae of the mustard beetle (Phaedon cochleariae). After the desired period of time, the activity in % is determined. 100% means that all beetle larvae have been killed; 0% means that none of the beetle larvae have been killed.
# Myzus persicae = test: Myzus test (MYZUPE spray treatment); conditions: application rate 500 g/ha, after 5 days, Chinese cabbage leaf discs
# In short: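 Chinese cabbage leaf discs carrying all stages of green peach aphid sprayed with compound diluted in emulsifier-containing water to the desired concentration. Mortality scored as % after 5 days, where 100% means all aphids dead and 0% none.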
# Bemisia tabaci = Bemisia tabaci spray test (BEMITA); conditions: 20 g/ha; 7dat
# Description: Bemisia Tabaci-Spray Test ([…]) To produce a suitable preparation of active compound, 1 part by weight of active compound is mixed with the stated amount of solvent and emulsifier, and the concentrate is diluted with emulsifier-containing water to the desired concentration. Discs of cotton leaves (Gossypium hirsutum) which are infested by all stages of the whitefly (Bemisia tabaci) are sprayed with an active compound preparation of the desired concentration. After the desired period of time, the activity in % is determined. 100% means that all the whiteflies have been killed; 0% means that none of the whiteflies have been killed.
# Lucilia cuprina larvae = test: Lucilia cuprina test (LUCICU); conditions: 100 ppm, after 2 days
# Description: Lucilia Cuprina Test (LUCICU) [table] To prepare an appropriate active compound formulation, 10 mg of active compound are mixed with 0.5 ml of dimethyl sulfoxide and the concentrate is diluted with water to the desired concentration. Vessels containing horse meat treated with the active compound preparation of the desired concentration are populated with about 20 Lucilia cuprina larvae. After 2 days, the kill in % is determined. 100% means that all of the larvae have been killed; 0% means that none of the larvae have been killed.
# Spodoptera frugiperda = Spodoptera frugiperda test (SPODFR spray treatment)
# Description: Spodoptera Frugiperda Test (SPODFR Spray Treatment) [table] To produce a suitable preparation of active compound, 1 part by weight of active compound is mixed with the stated amount of solvent and emulsifier, and the concentrate is diluted with emulsifier-containing water to the desired concentration. Discs of corn leaves (Zea mays) are sprayed with an active compound preparation of the desired concentration and, after drying, populated with caterpillars of the armyworm (Spodoptera frugiperda). After 7 days, the effect in % is determined. 100% means that all caterpillars have been killed; 0% means that none of the caterpillars have been killed. Spodoptera Frugiperda Test (SPODFR Spray Treatment) To produce a suitable preparation of active compound, 1 part by weight of active compound is mixed with the stated amount of solvent and emulsifier, and the concentrate is diluted with emulsifier-containing water to the desired concentration. Discs of corn leaves (Zea mays) are sprayed with an active compound preparation of the desired concentration and, after drying, populated with caterpillars of the armyworm (Spodoptera frugiperda). After the desired period of time, the activity in % is determined. 100% means that all caterpillars have been killed; 0% means that none of the caterpillars have been killed.
structure (smiles),measurement,setting,value
CCOC(=O)OC1=C(c2c(C)cc(C)cc2C)C(=O)C2(CCC(COC)CC2)N1 (stereo not shown) [I-b-3],% Activity TETRUR,"Tetranychus urticae; 20 g/ha, 5dat, OP-resistant",80%
same,effect in % (spider mites killed),"Tetranychus urticae; application rate 100 g/ha, after 5 days, bean leaf discs",90%
same,efficacy in % (deposition of fertile eggs),Boophilus microplus,100%
same,% Activity LIRITRI,Liriomyza trifolii,80%
same,effect in % (beetle larvae killed),Phaedon cochleariae,100%
same,effect in % (aphids killed),Myzus persicae,90%
same,% Activity BEMITA,Bemisia tabaci,72%
same,kill in % (larvae),Lucilia cuprina larvae,90%
same,% Activity SPODFR,"Spodoptera frugiperda; 500 g/ha, 7dat",100%
same,effect in % (caterpillars killed),"Spodoptera frugiperda; application rate 500 g/ha, after 7 days, corn leaf discs",100%
